Substitutions are numbered along the chain they refer to.
Assays:
Sestrin2-GATOR2 complex = Sestrin2-GATOR2 complex (Homo sapiens, UniProt P58004); experiment: disruption of immunopurified Sestrin2-GATOR2 complex, immunoblot; format: binding; settings: 300 µM amino acid
Sestrin2 (FLAG-Sestrin2) [1] = target: T1, Sestrin2 (FLAG-Sestrin2) (Homo sapiens, UniProt P58004, L261A); experiment: [3H]Leucine binding, FLAG immunoprecipitate on beads; settings: labelled compound
T1 sequence (P58004 1-480 L261A): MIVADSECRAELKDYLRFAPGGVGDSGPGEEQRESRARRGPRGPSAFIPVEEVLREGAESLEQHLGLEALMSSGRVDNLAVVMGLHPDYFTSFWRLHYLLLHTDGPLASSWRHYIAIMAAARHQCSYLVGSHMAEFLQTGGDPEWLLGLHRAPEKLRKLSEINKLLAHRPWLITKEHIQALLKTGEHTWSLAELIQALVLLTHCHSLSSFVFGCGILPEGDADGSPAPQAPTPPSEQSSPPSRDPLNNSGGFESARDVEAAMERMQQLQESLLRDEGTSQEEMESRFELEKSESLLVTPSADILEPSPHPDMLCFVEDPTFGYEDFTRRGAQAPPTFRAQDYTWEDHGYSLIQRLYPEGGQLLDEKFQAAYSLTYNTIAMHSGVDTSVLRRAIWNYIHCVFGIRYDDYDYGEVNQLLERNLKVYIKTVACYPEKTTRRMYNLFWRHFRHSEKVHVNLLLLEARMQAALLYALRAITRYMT

Sestrin3 = target: T2, Sestrin3 (Homo sapiens, UniProt P58005); experiment: as above; settings: labelled compound
T2 sequence (P58005 1-492): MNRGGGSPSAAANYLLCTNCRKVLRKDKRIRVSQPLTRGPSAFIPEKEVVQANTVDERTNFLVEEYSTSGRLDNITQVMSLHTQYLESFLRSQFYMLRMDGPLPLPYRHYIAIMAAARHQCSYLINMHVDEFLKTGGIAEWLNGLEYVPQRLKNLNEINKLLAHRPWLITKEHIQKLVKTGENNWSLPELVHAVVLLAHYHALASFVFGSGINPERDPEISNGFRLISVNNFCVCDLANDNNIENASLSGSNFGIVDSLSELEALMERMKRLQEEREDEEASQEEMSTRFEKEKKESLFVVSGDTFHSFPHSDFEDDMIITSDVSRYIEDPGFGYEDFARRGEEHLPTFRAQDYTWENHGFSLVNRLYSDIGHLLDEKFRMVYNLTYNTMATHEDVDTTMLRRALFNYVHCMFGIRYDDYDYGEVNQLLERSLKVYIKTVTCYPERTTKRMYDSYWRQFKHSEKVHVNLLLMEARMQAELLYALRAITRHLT

Sestrin1 (two isoforms) = target: T3, Sestrin1 (two isoforms) (Homo sapiens, UniProt Q9Y6P5); experiment: as above; settings: labelled compound
T3 sequence (Q9Y6P5 1-492): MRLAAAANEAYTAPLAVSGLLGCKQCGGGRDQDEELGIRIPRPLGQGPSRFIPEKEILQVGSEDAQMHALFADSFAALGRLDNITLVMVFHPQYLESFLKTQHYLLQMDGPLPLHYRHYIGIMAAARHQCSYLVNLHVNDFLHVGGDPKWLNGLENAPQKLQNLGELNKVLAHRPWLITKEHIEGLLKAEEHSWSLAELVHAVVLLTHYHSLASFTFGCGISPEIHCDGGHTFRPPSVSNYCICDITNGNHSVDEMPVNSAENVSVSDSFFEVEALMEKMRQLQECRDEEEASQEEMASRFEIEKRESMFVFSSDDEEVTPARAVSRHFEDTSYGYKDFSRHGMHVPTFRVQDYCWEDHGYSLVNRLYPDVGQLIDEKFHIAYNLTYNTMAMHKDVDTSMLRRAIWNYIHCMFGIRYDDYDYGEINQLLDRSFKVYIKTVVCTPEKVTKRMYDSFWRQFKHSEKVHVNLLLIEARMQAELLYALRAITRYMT

[2] = target: T4, His-MBP-Sestrin2 (bacterially-produced Sestrin2) (Homo sapiens, UniProt P58004); experiment: thermal shift assay, Sypro orange; format: binding; settings: maximal shift
T4 sequence (P58004 1-480): T1 sequence (P58004 1-480 L261A) with A261L

Sestrin2 (FLAG-Sestrin2) [3] = target: T5, Sestrin2 (FLAG-Sestrin2) (Homo sapiens, UniProt P58004, E451A); experiment: [3H]Leucine binding, FLAG immunoprecipitate on beads; settings: labelled compound
T5 sequence (P58004 1-480 E451A): T1 sequence (P58004 1-480 L261A) with A261L, E451A

Sestrin2 (FLAG-Sestrin2) [4] = target: T6, Sestrin2 (FLAG-Sestrin2) (Homo sapiens, UniProt P58004, S190W); experiment: as above; settings: labelled compound
T6 sequence (P58004 1-480 S190W): T1 sequence (P58004 1-480 L261A) with S190W, A261L

Chain of Sestrin2-GATOR2 complex (P58004 whole entry): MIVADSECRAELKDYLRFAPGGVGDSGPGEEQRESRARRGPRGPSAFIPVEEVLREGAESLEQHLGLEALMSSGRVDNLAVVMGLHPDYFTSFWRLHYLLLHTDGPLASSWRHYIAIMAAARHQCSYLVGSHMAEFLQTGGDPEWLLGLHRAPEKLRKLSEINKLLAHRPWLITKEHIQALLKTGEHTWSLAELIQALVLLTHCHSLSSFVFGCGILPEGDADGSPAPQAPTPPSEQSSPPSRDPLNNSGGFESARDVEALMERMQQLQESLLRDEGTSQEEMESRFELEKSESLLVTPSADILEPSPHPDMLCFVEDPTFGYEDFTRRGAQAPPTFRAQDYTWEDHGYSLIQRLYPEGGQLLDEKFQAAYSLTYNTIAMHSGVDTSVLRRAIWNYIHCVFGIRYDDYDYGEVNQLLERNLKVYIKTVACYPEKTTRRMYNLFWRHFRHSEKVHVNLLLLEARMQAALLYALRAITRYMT
Chain of Sestrin2-GATOR2 complex (Q96S15 whole entry partner): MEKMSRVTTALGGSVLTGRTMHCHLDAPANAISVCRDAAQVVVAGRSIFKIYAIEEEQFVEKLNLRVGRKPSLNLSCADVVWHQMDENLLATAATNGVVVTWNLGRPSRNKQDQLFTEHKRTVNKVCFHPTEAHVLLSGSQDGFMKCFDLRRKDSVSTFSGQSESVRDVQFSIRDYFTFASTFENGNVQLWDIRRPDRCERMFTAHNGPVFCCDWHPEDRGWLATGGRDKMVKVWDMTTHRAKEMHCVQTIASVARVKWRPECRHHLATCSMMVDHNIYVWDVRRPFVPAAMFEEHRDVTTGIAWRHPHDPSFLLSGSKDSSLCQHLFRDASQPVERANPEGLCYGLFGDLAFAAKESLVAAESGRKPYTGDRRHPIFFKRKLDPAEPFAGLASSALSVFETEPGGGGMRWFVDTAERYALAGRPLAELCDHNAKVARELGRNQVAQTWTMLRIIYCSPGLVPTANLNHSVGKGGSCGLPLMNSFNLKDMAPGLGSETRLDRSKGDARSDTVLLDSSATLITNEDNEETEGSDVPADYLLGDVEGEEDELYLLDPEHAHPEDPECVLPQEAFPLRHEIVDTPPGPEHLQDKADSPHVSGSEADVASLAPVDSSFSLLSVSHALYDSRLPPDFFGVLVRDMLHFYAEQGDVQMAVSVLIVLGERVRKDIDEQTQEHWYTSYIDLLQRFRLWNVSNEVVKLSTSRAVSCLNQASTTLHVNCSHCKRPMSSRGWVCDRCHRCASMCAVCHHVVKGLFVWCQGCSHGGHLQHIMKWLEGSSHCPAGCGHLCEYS
Chain of Sestrin2-GATOR2 complex (Q9NXC5 whole entry partner): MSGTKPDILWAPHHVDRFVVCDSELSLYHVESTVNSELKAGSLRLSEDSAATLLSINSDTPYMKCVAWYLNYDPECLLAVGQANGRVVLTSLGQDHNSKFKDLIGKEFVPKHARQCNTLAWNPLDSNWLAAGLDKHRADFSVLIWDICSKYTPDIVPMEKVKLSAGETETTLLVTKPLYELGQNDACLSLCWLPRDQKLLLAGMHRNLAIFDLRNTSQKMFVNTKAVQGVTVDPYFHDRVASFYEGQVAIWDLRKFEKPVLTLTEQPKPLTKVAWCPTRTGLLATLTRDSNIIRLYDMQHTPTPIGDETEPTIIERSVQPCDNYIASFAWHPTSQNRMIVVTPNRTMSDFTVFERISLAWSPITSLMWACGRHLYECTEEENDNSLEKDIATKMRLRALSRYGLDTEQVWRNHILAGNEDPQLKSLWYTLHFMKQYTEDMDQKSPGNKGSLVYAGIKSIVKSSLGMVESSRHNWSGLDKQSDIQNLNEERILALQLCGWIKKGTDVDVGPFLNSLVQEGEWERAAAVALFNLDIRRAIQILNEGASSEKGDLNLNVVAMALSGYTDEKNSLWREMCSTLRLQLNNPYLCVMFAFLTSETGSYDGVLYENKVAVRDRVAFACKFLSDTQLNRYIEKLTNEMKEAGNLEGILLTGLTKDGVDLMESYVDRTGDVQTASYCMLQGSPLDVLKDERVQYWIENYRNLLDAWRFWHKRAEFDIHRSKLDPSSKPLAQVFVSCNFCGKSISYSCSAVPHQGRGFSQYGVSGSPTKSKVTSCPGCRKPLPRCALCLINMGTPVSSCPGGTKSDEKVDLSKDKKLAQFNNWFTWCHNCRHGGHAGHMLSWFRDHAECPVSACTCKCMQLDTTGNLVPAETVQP
Chain of Sestrin2-GATOR2 complex (Q6PJI9 whole entry partner): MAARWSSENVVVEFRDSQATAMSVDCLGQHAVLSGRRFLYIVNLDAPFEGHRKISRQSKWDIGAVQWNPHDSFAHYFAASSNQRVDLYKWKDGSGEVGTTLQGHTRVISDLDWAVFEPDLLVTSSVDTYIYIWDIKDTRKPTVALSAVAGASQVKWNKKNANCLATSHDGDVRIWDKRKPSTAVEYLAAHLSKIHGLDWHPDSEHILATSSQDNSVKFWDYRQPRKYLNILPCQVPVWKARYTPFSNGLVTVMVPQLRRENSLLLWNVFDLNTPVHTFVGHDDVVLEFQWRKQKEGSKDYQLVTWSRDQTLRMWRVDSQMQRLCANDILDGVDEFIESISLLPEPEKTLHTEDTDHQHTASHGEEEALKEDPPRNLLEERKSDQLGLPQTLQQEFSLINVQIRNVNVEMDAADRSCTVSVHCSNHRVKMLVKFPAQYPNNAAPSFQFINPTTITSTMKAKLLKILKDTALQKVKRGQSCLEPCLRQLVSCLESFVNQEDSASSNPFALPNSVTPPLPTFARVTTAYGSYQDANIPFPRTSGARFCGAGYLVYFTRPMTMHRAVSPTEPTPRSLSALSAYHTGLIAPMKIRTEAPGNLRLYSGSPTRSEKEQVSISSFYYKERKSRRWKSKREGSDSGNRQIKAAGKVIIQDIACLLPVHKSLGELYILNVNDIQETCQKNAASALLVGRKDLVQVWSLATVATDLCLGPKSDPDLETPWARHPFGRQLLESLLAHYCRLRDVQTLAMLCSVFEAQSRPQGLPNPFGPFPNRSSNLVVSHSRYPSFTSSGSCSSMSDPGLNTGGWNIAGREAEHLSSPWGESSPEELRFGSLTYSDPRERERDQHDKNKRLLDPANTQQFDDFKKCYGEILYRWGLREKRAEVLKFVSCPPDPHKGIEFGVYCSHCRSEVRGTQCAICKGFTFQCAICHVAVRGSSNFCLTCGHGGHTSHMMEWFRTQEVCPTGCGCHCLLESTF
Chain of Sestrin2-GATOR2 complex (Q96EE3 whole entry partner): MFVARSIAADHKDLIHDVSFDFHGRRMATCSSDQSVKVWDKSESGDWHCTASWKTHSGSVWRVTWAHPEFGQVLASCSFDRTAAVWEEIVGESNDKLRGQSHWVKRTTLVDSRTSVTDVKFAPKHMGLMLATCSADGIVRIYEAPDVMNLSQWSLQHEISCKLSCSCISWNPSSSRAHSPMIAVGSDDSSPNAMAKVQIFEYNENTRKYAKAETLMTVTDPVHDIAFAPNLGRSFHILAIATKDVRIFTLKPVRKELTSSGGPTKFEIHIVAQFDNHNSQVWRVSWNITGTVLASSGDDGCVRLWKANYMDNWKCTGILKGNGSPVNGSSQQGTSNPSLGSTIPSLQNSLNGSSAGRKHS
Chain of Sestrin2-GATOR2 complex (P55735 2-322 partner): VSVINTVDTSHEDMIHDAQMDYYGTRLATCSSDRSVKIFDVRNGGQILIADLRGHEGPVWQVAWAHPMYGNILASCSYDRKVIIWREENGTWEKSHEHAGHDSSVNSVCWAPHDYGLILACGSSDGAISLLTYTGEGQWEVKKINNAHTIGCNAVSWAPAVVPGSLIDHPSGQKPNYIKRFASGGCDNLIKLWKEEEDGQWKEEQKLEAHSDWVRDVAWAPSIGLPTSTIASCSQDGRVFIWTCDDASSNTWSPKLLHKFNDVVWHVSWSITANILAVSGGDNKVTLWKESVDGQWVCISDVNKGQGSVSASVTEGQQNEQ

SMILES | disruption of immunopurified Sestrin2-GATOR2 complex, immunoblot (Sestrin2-GATOR2 complex) | no appreciable binding (Sestrin2 (FLAG-Sestrin2) [1]) | very weak binding (Sestrin3) | [3H]Leucine binding, FLAG immunoprecipitate on beads (Sestrin1 (two isoforms)) | melting temperature shift (dTm) [2] | no appreciable binding (Sestrin2 (FLAG-Sestrin2) [3]) | [3H]Leucine binding, FLAG immunoprecipitate on beads (Sestrin2 (FLAG-Sestrin2) [4])
CC(C)[C@H](N)C(=O)O [valine] | methionine, isoleucine, and valine– had any effect on the Sestrin2-GATOR2 interaction in vitro | – | – | – | – | – | –
CC(C)C[C@H](N)C(=O)O [leucine] | – | L261A and E451A, which do not bind leucine to an appreciable degree | Sestrin3 bound very weakly | Sestrin1 bound leucine to a similar extent as did Sestrin2 | up to 8.5 °C | L261A and E451A, which do not bind leucine to an appreciable degree | Sestrin2 mutant (S190W) that still binds leucine

From publication PMC4698017 (Science (New York, N.Y.), 2015)
